In US7267815B2, “Methods and reagents for the enhancement of virus transduction in the bladder epithelium” (priority 2002, dated 2007):
Structures can show the parent of a compound that is named as a salt. Where two headings read alike, the source gives them in different places.

Columns and labels:
bladder epithelium [1] = assay: Effect of chemical agent pretreatment on adenovirus-mediated gene transfer and expression (Ad-βgal, X-gal staining); assay type: in vivo, mouse (BALB/c); details: for effect on transduction (in words): bladder pretreatment followed by Ad-LacZ
Description: 152 female BALB/c mice were used this study.
The route of administration of the chemical agent and virus was intravesical.
3. Based on the reagent being tested, bladder pretreatment was performed as follows:
Poloxomer 407 procedure: Washed 2 times with 100 μl each. Retained the 3rd wash for 5 min and gave one additional wash. Performed 3 times PBS wash prior to virus instillation.
Poloxomer 188 procedure: Washed 2 times with 100 μl each. Retained the 3rd wash for 5 minutes and gave one additional wash. Performed 3 times PBS wash prior to virus instillation.
Lipofectamine 2000 procedure: Added 5 μl of stock Lipofectamine (1 mg/ml) to 195 μl of PBS-10% glycerol. Mixed with an equal volume of Ad-βgal virus and incubated for 15 minutes. Administered 100 μl of the mixture intravesically and retained in the bladder for 30 minutes.
Benzyl Alcohol procedure: Washed 2 times with 100 μl each. Retained the 3rd wash for 15 minutes and then gave one additional wash. Performed 3 times PBS wash prior to virus instillation.
Performed 3 times PBS wash prior to virus instillation.
Polidocanol procedure: Washed 2 times with 100 μl each. Retained the 3rd wash for 5 min and then gave one additional wash. Performed 3 times PBS wash prior to virus instillation.
DC-Cho procedure: Washed 2 times with 100 μl each. Retained the 3rd wash for 5 min and then gave one additional wash. Performed 3 times PBS wash prior to virus instillation.
0.4% HPMC 2910 procedure: No pretreatment. An equal volume of the virus was mixed with 0.8% solution of HPMC2910 and the mixture was instilled into the bladder for 30 minutes.
100 mg/ml Poly-Lysine procedure: No pretreatment. An equal volume of the virus was mixed with 100 mg/ml solution of Poly-Lysine and the mixture was instilled into the bladder for 30 minutes.
0.4% polyvinyl alcohol (PVA) procedure: No pretreatment. An equal volume of the virus was mixed with 0.8% solution of PVA and the mixture was instilled into the bladder for 30 minutes.
n-dodecyl-β-D glucopyranoside procedure: Washed 2 times with 100 μl each. Retained the 3rd wash for 5 min and then gave one additional wash. Performed 3 times PBS wash prior to virus instillation.
0.4% PVP procedure: No pretreatment. An equal volume of the virus was mixed with 0.8% solution of PVP and the mixture was instilled into the bladder for 30 min.
0.1% cholesterol-cyclodextrin reagent procedure: No pretreatment. An equal volume of the virus was mixed with 0.2% solution of Cholesterol-Cyclodextrin and the mixture was instilled into the bladder for 30 minutes.
n-dodecyl-β-D-maltoside procedure: Washed 2 times with 100 μl each. Retained the 3rd wash for 5 min and then gave one additional wash. Performed 3 times PBS wash prior to virus instillation.
Sodium salt of dodecyl benzenesulfonic acid procedure: Washed 2 times with 100 μl each. Retained the 3rd wash for 5 min and then gave one additional wash. Performed 3 times PBS wash prior to virus instillation.
0.1% sodium dodecyl sulphate procedure: Wash 2 times with 100 μl each. Retained the 3rd wash for 5 min and then gave one additional wash. Performed 3 times PBS wash prior to virus instillation.
0.1% Tween 20 procedure: Washed 2 times with 100 μl each. Retained the 3rd wash for 5 min and then gave one additional wash. Performed 3 times PBS wash prior to virus instillation.
0.1% Triton® X-100 procedure: Washed 2 times with 100 μl each. Retained the 3rd wash for 5 min and then gave one additional wash. Perform 3 times PBS wash prior to virus instillation.
0.1% Forlan C-24 procedure: Washed 2 times with 100 μl each. Retained the 3rd wash for 5 min and then gave one additional wash. Performed 3 times PBS wash prior to virus instillation.
0.1% decyl-b-D-maltoside procedure: Washed 2 times with 100 μl each. Retained the 3rd wash for 5 min and then gave one additional wash. Performed 3 times PBS wash prior to virus instillation.
0.1% 6-cyclohexylhexyl-b-D-maltoside procedure: Washed 2 times with 100 μl each. […]

bladder epithelium [2] = assay: Transduction efficacy of exemplary pretreatment agents (summary Table 7); assay type: in vivo, mouse; details: pretreatment agent
[3] = tested on: SD rat bladder epithelium; assay: Adenovirus dose titration with SDS or DDM pretreatment; assay type: in vivo, Sprague Dawley Rat; details: 0.1% pretreatment
Source text: All the animals had >90% in Ad-βgal gene expression in mice bladder. Adenovirus Dose Titration with Different Chemical Agents Pretreatment on SD Rat Bladder Epithelium • Species: Female Sprague Dawley Rat (Taconic Laboratory)—2/group • Study Design: To test the virus infectivity of rat bladder epithelium with different doses of Adenovirus following the pretreatment with SDS or DDM. This study also explored relationship between bladder volume and residual of SDS or DDM for adenovirus infectivity. • Dose/Route:
Rat bladders infected with 4×10^10 vp adenovirus achieved >90% Ad-βgal gene expression levels whereas rat bladders infected with 4×10^9 vp adenovirus had Ad-βgal gene expression levels range from 30% to 50%. […] Efficacy of Dodecyl-β-D-Maltoside as a Pretreatment Agent Prior to Adenovirus Infection of Mice Bladder Urothelium • Species: Female Balb/c Mouse (Taconic Laboratory)—2/group • Study Design: To test DDM from two different suppliers as pretreatment agents to enhance the adenovirus infection of mice bladder urothelium in a large group of animals. • Dose/Route: […]

adenovirus (Ad-LacZ) = assay: Study #5: adenovirus stability after incubation with 0.1% SDS or 0.1% DDM (plaque assay); assay type: physicochemical; details: 0.1% solution, one hour at 25° C. or 37° C.
Description: In this study, adenovirus (Ad-LacZ) preparations (1.0×10^12 vp/ml) were mixed with solutions of SDS or DDM to obtain a mixture of adenovirus and each of these surfactants. […] These samples were incubated at 25° C. or 37° C. for one hour before freezing. They were sent to assay services for plaque assay analysis.

adenovirus [4] = assay: Study #4: degradation of adenovirus by SDS (anion exchange chromatography); assay type: physicochemical; details: 37° C.
Description: A series of experiments were preformed on samples of adenovirus incubated at 37° C. for 15-30 minutes in various concentrations of SDS. The resulting material was examined by anion exchange chromatography.

Ad5-LacZ adenovirus [5] = assay: Study #1: compatibility of Ad5-LacZ with ethanol and urine (plaque assay); assay type: physicochemical; details: 40% ethanol, 37° C. one hour
Description: In this study, each sample was incubated at 37° C. for one hour before the plaque assay started.

Ad5-LacZ adenovirus [6] = assay: Study #2: compatibility of Ad5-LacZ with ethanol (plaque assay); assay type: physicochemical; details: higher concentrations of ethanol (i.e., ≧10%)
Description: For this study, each sample was incubated at 37° C. before the plaque assay started.

bladder epithelium [7] = tested on: bladder epithelium
Description: A study was conducted to evaluate the effect of ethanol pretreatment on adenovirus-mediated gene transfer and expression in the bladder epithelium of rodents.
Ad-βgal virus was made as a frozen formulation using standard conditions known in the art for freezing and formulation of adenovirus. The vehicle for the virus arm was PBS plus 10% glycerol.
80 female BALB/c mice were used for this study. Female animals are chosen because of the ease of urethral cannulation and vesicle instillation. The mice were approximately 10 to 12 weeks on the day of the start of the experiment.
Animals were anesthetized with isoflurane and a 24 g catheter introduced through the urethra into the bladder.
Residual urine was emptied and the bladder was flushed 3 times with 100-150 μl each of PBS.
Ad-βgal viruses diluted in 0.1 ml of PBS-10% glycerol were administered intravesically into the bladder and retained in the bladder for 45 minutes. A knot was placed around the urethral orifice to prevent leakage of the virus and to prevent the catheter from dislodging.
Treatment was stopped by withdrawing the virus and flushing the bladders 3 times with 100-150 μl of PBS. […]
Animals were killed 48 hours after treatment. […] Transgene expression in the luminal epithelium of the longitudinally opened bladders was empirically determined.

bladder = assay: Histopathology of bladders after chemical agent pretreatment (pathologists report); assay type: in vivo, mouse (BALB/c)
Source text: Bladders fixed in whole organ fixative were sectioned and stained with hematoxylin-eosin for histologic examination.

adenovirus [8] = assay: Study #3: compatibility of adenovirus with selected enhancers (plaque assay); assay type: physicochemical
Description: For this study, each sample was incubated at 37° C. or 25° C. before the plaque assay started.

[9] = 0.2% pre-treatment for 5 minutes
[10] = 0.02% pre-treatment for 5 minutes
[11] = 0.05% pre-treatment for 5 minutes

`OC[C@H]1O[C@H](O[C@H]2[C@H](O)[C@@H](O)[C@H](OCCCCCCC3CCCCC3)O[C@@H]2CO)[C@H](O)[C@@H](O)[C@@H]1O` [6-cyclohexylhexyl-β-D-maltoside] was tested, and the “response class (level of transduction)” value (bladder epithelium [1]) was “strongest response”, the “effect on transduction (in words)” value (bladder epithelium [1]) was “increased transduction significantly” and the “Transduction Efficacy” value (bladder epithelium [2]) was “++++ (“++++” means >75% transduction efficacy)”.
In the case of `CCCCCCCCCCOS(=O)(=O)[O-].[Na+]` [Sodium decyl sulfate], the “Transduction Efficacy” value (bladder epithelium [2]) is reported as “+ (“+” means 10-25% transduction efficacy)”.
`CCCCCCCCCCCCOS(=O)(=O)O` [Sodium dodecyl sulfate, sodium dodecyl sulfate] was tested, and the “removal of GAG layer of bladder epithelium” value [3] was “effective to remove GAG layer of bladder epithelium”, the “response class (level of transduction)” value (bladder epithelium [1]) was “strongest response” and the “effect on adenovirus (in words)” value (adenovirus (Ad-LacZ)) was “will inactivate the virus”. For the same molecule, the “degradation of the virus (AEX)” value (adenovirus [4]; SDS above or equal to 0.025%, 15-30 minutes) was “will rapidly degrade the virus”, the “particle quality or quantity by AEX method” value (adenovirus [4]; SDS at 0.0125%, 30 minutes of incubation) was “did not reduce the particle quality or quantity” and the “Transduction Efficacy” value (bladder epithelium [2]) was “++++ (“++++” means >75% transduction efficacy)”.
`CCO` [ethanol] was tested, and the “effect on the virus (in words)” value (Ad5-LacZ adenovirus [5]) was “inactivated most of the virus”, the “effect on adenovirus (in words)” value (Ad5-LacZ adenovirus [6]) was “partial to complete inactivation of adenovirus” and the transduction (bladder epithelium [7]; 15%, 20%, 25%, and 30 wt. % ethanol pretreatment for 20 minutes, then Ad-βgal 45 min, 48 hours) was 10-20%. For the same molecule, the transduction (bladder epithelium [7]; ethanol percentage as high as 30%, reference pre-treatment) was 10-20%.
`CCCCCCCCCCCCO[C@H]1O[C@H](CO)[C@@H](O[C@H]2O[C@H](CO)[C@@H](O)[C@H](O)[C@H]2O)[C@H](O)[C@H]1O` [n-Dodecyl-α-D-Maltoside, n-dodecyl-α-D-maltoside] was tested, and the “Transduction Efficacy” value (bladder epithelium [2]) was “++++ (“++++” means >75% transduction efficacy)”.
For `CCCCCCCCCCCCCCO[C@@H]1O[C@H](CO)[C@@H](O[C@H]2O[C@H](CO)[C@@H](O)[C@H](O)[C@H]2O)[C@H](O)[C@H]1O` [n-Tetradecyl-β-D-Maltoside], the “Transduction Efficacy” value (bladder epithelium [2]) was “++ (“++” means 25-50% transduction efficacy)”.
`CCCCCCCCCCCCCOC1OC(CO)C(OC2OC(CO)C(O)C(O)C2O)C(O)C1O` [n-Tridecyl-β-D-Maltoside] was tested, and the “Transduction Efficacy” value (bladder epithelium [2]) was “+++ (“+++” means 50-75% transduction efficacy)”.
In the case of `CCCCCCCCCCO[C@@H]1O[C@H](CO)[C@@H](O[C@H]2O[C@H](CO)[C@@H](O)[C@H](O)[C@H]2O)[C@H](O)[C@H]1O` [n-decyl-β-D-maltoside], the “response class (level of transduction)” value (bladder epithelium [1]) is reported as “weak responders (had significantly less stained area compared to the ethanol control group)”, the “effect on transduction (in words)” value (bladder epithelium [1]) is reported as “only a slight effect on transduction” and the “Transduction Efficacy” value (bladder epithelium [2]) is reported as “+ (“+” means 10-25% transduction efficacy)”.
For `CCCCCCCCCCCCO[C@@H]1O[C@H](CO)[C@@H](O)[C@H](O)[C@H]1O` [n-dodecyl-β-D-glucopyranoside], the “effect on transduction (in words)” value (bladder epithelium [1]) was “little or no enhancement of transduction”.
In the case of `CCCCCCCCCCCCc1ccc(S(=O)(=O)[O-])cc1.[Na+]` [sodium salt of dodecyl-benzenesulfonic acid], the “response class (level of transduction)” value (bladder epithelium [1]) is reported as “strongest response”, the “transduction of the urothelium” value (bladder epithelium [1]; [9]) is reported as 20-40% and the “effect on transduction (in words)” value (bladder epithelium [1]) is reported as “enhanced the transduction of Ad-LacZ in murine bladders”. For the same molecule, the “Transduction Efficacy” value (bladder epithelium [2]) was “+ (“+” means 10-25% transduction efficacy)”.
For Triton X-100, the “response class (level of transduction)” value (bladder epithelium [1]) was “weak responders (had significantly less stained area compared to the ethanol control group)”, the “effect on transduction (in words)” value (bladder epithelium [1]) was “found to enhance transduction” and the “Transduction Efficacy” value (bladder epithelium [2]) was “+ (“+” means 10-25% transduction efficacy)”.
In the case of “polyethyleneglycoldodecyl ether [polidocanol, reference compound]”, the pathologists report (bladder; [10]) is reported as “intact mucosa”, the pathologists report (bladder; [11]) is reported as “minimal submucosal edema” and the pathologists report (bladder; [9]) is reported as “erosions and focal ulcer as well as mucosal compromise”. For the same molecule, the “response class (level of transduction)” value (bladder epithelium [1]) was “strongest response”, the “transduction of the urothelium” value (bladder epithelium [1]; [10]) was 10-20% and the “transduction of the urothelium” value (bladder epithelium [1]; [11]) was 30-40%. For the same molecule, the “transduction of the urothelium” value (bladder epithelium [1]; [9]) was 50-80%, the “Average pfu/mL” value (adenovirus [8]; 25° C., 2 hours) was 1.02E+10 pfu/mL and the Ratio vp/pfu (adenovirus [8]; 25° C., 2 hours) was 21 vp/pfu. For the same molecule, the “Average pfu/mL” value (adenovirus [8]; 37° C., 1 hour) was 1.22E+10 pfu/mL, the Ratio vp/pfu (adenovirus [8]; 37° C., 1 hour) was 17 vp/pfu and the “compatibility with the adenovirus (in words)” value (adenovirus [8]; under the experimental conditions of Table 5) was “compatible with the adenovirus”. For the same molecule, the “Transduction Efficacy” value (bladder epithelium [2]) was “++ (“++” means 25-50% transduction efficacy)”.
In the case of sucrose monolaurate, the “Transduction Efficacy” value (bladder epithelium [2]) is reported as “++++ (“++++” means >75% transduction efficacy)”.
